Reference: patent publication US8946438B2, “Benzamides, production thereof, and use thereof as medicaments” (Boehringer Ingelheim International GmbH, priority 2008, dated 2015)

Each compound was assayed against p38 MAP-kinase (Homo sapiens, UniProt Q16539) (assay: Enzymatic assay: inhibition of p38 MAP-kinase (phosphorylation of GST-tagged ATF2, chemoluminescence bead readout)). Settings: inhibitor 1 μM; activated p38 MAP-kinase 1 nM; 4 h preincubation; ATP 100 μM; ATF2 10 nM; read-out: % inhibitory effect at 1 μM.
p38 MAP-kinase, sequence (Q16539 whole entry): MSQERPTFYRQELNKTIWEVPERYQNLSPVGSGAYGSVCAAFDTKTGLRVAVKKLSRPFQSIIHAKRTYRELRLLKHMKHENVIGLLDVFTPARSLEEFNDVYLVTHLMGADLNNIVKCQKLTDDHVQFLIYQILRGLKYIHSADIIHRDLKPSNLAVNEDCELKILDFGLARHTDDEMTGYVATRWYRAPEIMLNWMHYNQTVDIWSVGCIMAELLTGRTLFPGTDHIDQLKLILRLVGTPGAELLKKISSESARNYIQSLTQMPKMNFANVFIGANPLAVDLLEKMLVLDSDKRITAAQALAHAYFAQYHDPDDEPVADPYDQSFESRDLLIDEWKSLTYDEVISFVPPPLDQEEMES
Type: biochemical
Description: In this, the amount of a substrate phosphorylated by the kinase is quantified. The test is carried out as follows:
The kinase reaction is carried out in the presence of HEPES (20 mM, pH 7), MgCl2 (10 mM), DTT (1 mM) and TWEEN20 (0.01%). First, dimethylsulphoxide or inhibitor (final concentration: 1 μM) dissolved in dimethylsulphoxide are placed in a reaction vessel. Then the activated p38 MAP-kinase (final concentration 1 nM) is added and the mixture is incubated for 4 h at ambient temperature. Then a mixture of substrate (GST-tagged ATF2) and ATP is added and everything is incubated together for a further hour (final concentration ATP: 100 μM; final concentration ATF2: 10 nM).
The concentration of phosphorylated ATF2 is quantified by chemoluminescence-induced light emission. For this, a glutathione donor bead (final concentration: 5 μg/ml) which binds to the gluthathione on the ATF2 and phospho-ATF2 antibodies are added to the reaction mixture (final concentration: 3 nM; this binds the phosphate group added by the kinase reaction) to which a Protein A Acceptor Bead (final concentration: 5 μg/ml) binds. These components are dissolved in a buffer which contains 20 mM HEPES pH 7.0, 200 mM NaCL, 80 mM EDTA as well as 0.3% BSA. This reaction mixture is incubated in the dark for 1 hour at ambient temperature. When these beads come physically close, visible light is emitted which is measured in a photometer at 520-620 nm.
To determine the inhibitory activity of the compounds according to the invention a calculation is made to determine the percentage by which the kinase activity is inhibited at a fixed inhibitor concentration of 1 μM. The maximum activity is determined by non-inhibited kinase. The minimum activity or nonspecific background activity is determined using a reaction mixture without kinase. […] Table 2 summarises the degree of inhibition of the enzyme p38 MAP-kinase—as described hereinbefore—of the compounds according to the invention detailed in the section “Preparation of the final compounds”.

Row | Structure (SMILES) | inhibition at 1 µM
1 | COc1c(NC(=O)c2ccc(C)c(Oc3cc(NCCO)ncn3)c2)cc(C(C)(C)C)cc1NS(C)(=O)=O [4(1), N-(5-tert-butyl-3-methanesulphonylamino-2-methoxy-phenyl)-3-[6-(2-hydroxy-ethylamino)-pyrimidin-4-yloxy]-4-methyl-benzamide] | 96.8%
2 | CCOc1c(NC(=O)c2ccc(C)c(Oc3ccnc(CC4CCNCC4)c3)c2)cc(C(C)(C)C)cc1NS(C)(=O)=O [5(45), N-(5-tert-butyl-2-ethoxy-3-methanesulphonylamino-phenyl)-4-methyl-3-(2-piperidin-4-ylmethyl-pyridin-4-yloxy)-benzamide] | 99.6%
3 | Cc1ccc(C(=O)Nc2cc(C(C)(C)C)cc(NS(C)(=O)=O)c2OC(C)C)cc1Oc1ccnc(CC2CCNCC2)c1 [5(44), N-(5-tert-butyl-2-isopropoxy-3-methanesulphonylamino-phenyl)-4-methyl-3-(2-piperidin-4-ylmethyl-pyridin-4-yloxy)-benzamide] | 93.2%
4 | COc1c(NC(=O)c2ccc(C)c(Oc3ccnc(NC4CCNC4)n3)c2)cc(C(C)(C)C)cc1NS(C)(=O)=O (stereo not shown) [5(23), N-(5-tert-butyl-3-methanesulphonylamino-2-methoxy-phenyl)-4-methyl-3-[2-(pyrrolidin-3-ylamino)-pyrimidin-4-yloxy]-benzamide] | 98.3%
5 | COc1c(NC(=O)c2ccc(C)c(Oc3cc(NC4CCNCC4)ncn3)c2)cc(C(C)(C)C)cc1NS(C)(=O)=O [5(17), N-(5-tert-butyl-3-methanesulphonylamino-2-methoxy-phenyl)-4-methyl-3-[6-(piperidin-4-ylamino)-pyrimidin-4-yloxy]-benzamide x trifluoroacetic acid] | 98.2%
6 | COc1c(NC(=O)c2ccc(Cl)c(Oc3ccnc(CN(C)CCN(C)C)n3)c2)cc(C(C)(C)C)cc1NS(C)(=O)=O [8(36), N-(5-tert-butyl-3-methanesulphonylamino-2-methoxy-phenyl)-4-chloro-3-(2-{[(2-dimethylamino-ethyl)-methyl-amino]-methyl}-pyrimidin-4-yloxy)-benzamide] | 82.6%
7 | COc1c(NC(=O)c2ccc(C)c(Oc3cc(N(C)C4CCN(C)C4)ncn3)c2)cc(C(C)(C)C)cc1NS(C)(=O)=O (stereo not shown) [4(20), N-(5-tert-butyl-3-methanesulphonylamino-2-methoxy-phenyl)-4-methyl-3-{6-[methyl-(1-methyl-pyrrolidin-3-yl)-amino]-pyrimidin-4-yloxy}-benzamide] | 95.6%
8 | COc1c(NC(=O)c2ccc(C)c(Oc3cc(CN4CCN(C)CC4)ncn3)c2)cc(C(C)(C)C)cc1NS(C)(=O)=O [8(2), N-(5-tert-butyl-3-methanesulphonylamino-2-methoxy-phenyl)-4-methyl-3-[6-(4-methyl-piperazin-1-ylmethyl)-pyrimidin-4-yloxy]-benzamide] | 98.7%
9 | COc1c(NC(=O)c2ccc(C)c(Oc3ccnc(CN(C)CCN(C)C)n3)c2)cc(C(C)(C)C)cc1NS(C)(=O)=O [8(24), N-(5-tert-butyl-3-methanesulphonylamino-2-methoxy-phenyl)-3-(2-{[N-(2-dimethylamino-ethyl)-N-methyl-amino]-methyl}-pyrimidin-4-yloxy)-4-methyl-benzamide] | 92.4%
10 | COc1c(NC(=O)c2ccc(C)c(Oc3ccnc(CNCCN(C)C)c3)c2)cc(C(C)(C)C)cc1NS(C)(=O)=O [8(27), N-(5-tert-butyl-3-methanesulphonylamino-2-methoxy-phenyl)-3-{2-[(2-dimethylamino-ethylamino)-methyl]-pyridin-4-yloxy}-4-methyl-benzamide] | 98.4%
11 | COc1c(NC(=O)c2ccc(C(F)(F)F)c(Oc3ccnc(N4CCNCC4)n3)c2)cc(C(C)(C)C)cc1NS(C)(=O)=O [5(4), N-(5-tert-butyl-3-methanesulphonylamino-2-methoxy-phenyl)-3-(2-piperazin-1-yl-pyrimidin-4-yloxy)-4-trifluoromethyl-benzamide x trifluoroacetic acid] | 45.3%
12 | COc1c(NC(=O)c2ccc(C)c(Oc3ccnc(CN4CCNCC4)n3)c2)cc(C(C)(C)C)cc1NS(C)(=O)=O [5(6), N-(5-tert-butyl-3-methanesulphonylamino-2-methoxy-phenyl)-4-methyl-3-(2-piperazin-1-ylmethyl-pyrimidin-4-yloxy)-benzamide] | 98.3%
13 | COc1c(NC(=O)c2ccc(C)c(Oc3ccnc(CC4CCNCC4)c3)c2)cc(C(F)(F)C(F)(F)F)cc1NS(C)(=O)=O [5(55), N-(3-methanesulphonylamino-2-methoxy-5-pentafluoroethyl-phenyl)-4-methyl-3-(2-piperidin-4-ylmethyl-pyridin-4-yloxy)-benzamide] | 99.6%
14 | COc1c(NC(=O)c2ccc(C)c(Oc3ccnc(CC4CCNCC4)c3)c2)cc(C(C)(C)C)cc1NC(=O)C1CC1 [5(43), N-[5-tert-butyl-3-(cyclopropanecarbonyl-amino)-2-methoxy-phenyl]-4-methyl-3-(2-piperidin-4-ylmethyl-pyridin-4-yloxy)-benzamide] | 98.6%
15 | COc1c(NC(=O)c2ccc(C)c(Oc3cc(N4CCOCC4)ncn3)c2)cc(C(C)(C)C)cc1NS(C)(=O)=O [4(5), N-(5-tert-butyl-3-methanesulphonylamino-2-methoxy-phenyl)-4-methyl-3-(6-morpholin-4-yl-pyrimidin-4-yloxy)-benzamide] | 97.4%
16 | COc1c(NC(=O)c2ccc(Cl)c(Oc3cc(NC4CCNCC4)ncn3)c2)cc(C(C)(C)C)cc1NS(C)(=O)=O [Example 11, N-(5-tert-butyl-3-methanesulphonylamino-2-methoxy-phenyl)-4-chloro-3-[6-(piperidin-4-ylamino)-pyrimidin-4-yloxy]-benzamide] | 99.2%
17 | COc1c(NC(=O)c2ccc(C)c(Oc3ccnc(CN4CCCNCC4)c3)c2)cc(C(C)(C)C)cc1S(C)(=O)=O [5(39), N-(5-tert-butyl-3-methanesulphonyl-2-methoxy-phenyl)-3-(2-[1,4]diazepan-1-ylmethyl-pyridin-4-yloxy)-4-methyl-benzamide] | 99.4%
18 | COc1c(NC(=O)c2ccc(C)c(Oc3ccnc(CN4CC[C@@H](O)C4)c3)c2)cc(C(C)(C)C)cc1NS(C)(=O)=O [8(12), (R)-N-(5-tert-butyl-3-methanesulphonylamino-2-methoxy-phenyl)-3-[2-(3-hydroxy-pyrrolidin-1-ylmethyl)-pyridin-4-yloxy]-4-methyl-benzamide] | 97%
19 | COc1c(NC(=O)c2ccc(C)c(Oc3cc(NC4CCN(C)CC4)ncn3)c2)cc(C(C)(C)C)cc1NS(C)(=O)=O [4(10), N-(5-tert-butyl-3-methanesulphonylamino-2-methoxy-phenyl)-4-methyl-3-[6-(1-methyl-piperidin-4-ylamino)-pyrimidin-4-yloxy]-benzamide] | 100%
20 | COc1c(NC(=O)c2ccc(C)c(Oc3ccnc(CN4CC[C@H](N(C)C)C4)n3)c2)cc(C(C)(C)C)cc1NS(C)(=O)=O [8(21), (S)-N-(5-tert-butyl-3-methanesulphonylamino-2-methoxy-phenyl)-3-[2-(3-dimethylamino-pyrrolidin-1-ylmethyl)-pyrimidin-4-yloxy]-4-methyl-benzamide] | 98.5%
21 | COc1c(NC(=O)c2ccc(C)c(Oc3ccnc(CC4CCCN(C)CC4)n3)c2)cc(C(C)(C)C)cc1NS(C)(=O)=O (stereo not shown) [12(6), N-(5-tert-butyl-3-methanesulphonylamino-2-methoxy-phenyl)-4-methyl-3-[2-(1-methyl-azepan-4-ylmethyl)-pyrimidin-4-yloxy]-benzamide] | 99.6%
22 | COc1c(NC(=O)c2ccc(C)c(Oc3ccnc(NC4CCN(C)CC4)n3)c2)cc(C(C)(C)C)cc1NS(C)(=O)=O [4(9), N-(5-tert-butyl-3-methanesulphonylamino-2-methoxy-phenyl)-4-methyl-3-[2-(1-methyl-piperidin-4-ylamino)-pyrimidin-4-yloxy]-benzamide] | 98.6%
23 | COc1c(NC(=O)c2ccc(Cl)c(Oc3ccnc(CN4CCNCC4)c3)c2)cc(C(C)(C)C)cc1NS(C)(=O)=O [5(34), N-(5-tert-butyl-3-methanesulphonylamino-2-methoxy-phenyl)-4-chloro-3-(2-piperazin-1-ylmethyl-pyridin-4-yloxy)-benzamide] | 99.1%
24 | COc1c(NC(=O)c2ccc(C)c(Oc3ccnc(CNC4CCN(C)C4)n3)c2)cc(C(C)(C)C)cc1NS(C)(=O)=O (stereo not shown) [8(23), N-(5-tert-butyl-3-methanesulphonylamino-2-methoxy-phenyl)-4-methyl-3-{2-[(1-methyl-pyrrolidin-3-ylamino)-methyl]-pyrimidin-4-yloxy}-benzamide] | 97.8%
25 | COc1c(NC(=O)c2ccc(F)c(Oc3ccnc(N4CCNCC4)n3)c2)cc(C(C)(C)C)cc1NS(C)(=O)=O [5(10), N-(5-tert-butyl-3-methanesulphonylamino-2-methoxy-phenyl)-4-fluoro-3-(2-piperazin-1-yl-pyrimidin-4-yloxy)-benzamide x trifluoroacetic acid] | 94.6%
